Target: recombinant IL4I1 (Homo sapiens (Human), UniProt Q96RQ9)
Test: IL4I1 Enzymatic Assay (Amplex Red/HRP coupled H2O2 detection)
Assay type: biochemical
Conditions: 1 nM IL4I1, 1 mM each Phe/Tyr/Trp, four-hour pre-incubation, 120 minutes reaction, top compound concentration of 10000 nM
How it was run: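 Recombinant IL4I1 (1 nM final) was pre-incubated 4 h at ambient temperature with compound in 50 mM Hepes pH 7.0, 0.005% Tween20. Reaction ran 120 min with 1 mM each Phe/Tyr/Trp, 0.05 mM Amplex Red and 1 U/mL HRP. Resorufin fluorescence (544/590 nm) was read, and EC50 fitted from ten-point 1:3 titrations (top 10000 nM) by four-parameter regression.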

recombinant IL4I1, sequence (Q96RQ9 22-567): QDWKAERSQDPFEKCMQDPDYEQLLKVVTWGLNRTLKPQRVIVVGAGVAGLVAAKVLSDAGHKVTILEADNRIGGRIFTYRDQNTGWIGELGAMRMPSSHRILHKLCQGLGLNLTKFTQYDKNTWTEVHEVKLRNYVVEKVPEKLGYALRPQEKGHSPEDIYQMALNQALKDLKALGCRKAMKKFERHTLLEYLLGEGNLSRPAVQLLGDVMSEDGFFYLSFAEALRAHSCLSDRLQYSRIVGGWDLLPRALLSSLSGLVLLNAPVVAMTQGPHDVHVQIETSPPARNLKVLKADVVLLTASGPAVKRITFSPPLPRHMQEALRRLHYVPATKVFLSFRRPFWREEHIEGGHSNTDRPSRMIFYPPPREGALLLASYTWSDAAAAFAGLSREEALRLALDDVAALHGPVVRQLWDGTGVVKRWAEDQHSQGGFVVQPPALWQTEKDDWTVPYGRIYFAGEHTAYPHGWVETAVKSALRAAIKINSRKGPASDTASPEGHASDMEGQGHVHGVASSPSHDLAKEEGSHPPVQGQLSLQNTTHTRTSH

EC50 [nM] | SMILES
1.9 | O=C1OCCN1c1ccc(Cc2cc3ccccc3[nH]c2=O)cn1 [Example 108, 3-(5-((2-oxo-1,2-dihydroquinolin-3-yl)methyl)pyridin-2-yl)oxazolidin-2-one]
39.9 | Cc1c(Cc2cc3ccccc3[nH]c2=O)cnn1C [Example 109, 3-((1,5-dimethyl-1H-pyrazol-4-yl)methyl)quinolin-2(1H)-one]
11.5 | CC(C)(C)n1cc(Cc2cc3ccccc3[nH]c2=O)cn1 [Example 110, 3-((1-(tert-butyl)-1H-pyrazol-4-yl)methyl)quinolin-2(1H)-one]
24.6 | O=c1[nH]c2ccccc2cc1Cc1cnn(CC2(C(F)F)CC2)c1 [Example 111, 3-((1-((1-(difluoromethyl)cyclopropyl)methyl)-1H-pyrazol-4-yl)methyl)quinolin-2(1H)-one]
60.5 | CCn1cc(Cc2cc3ccccc3[nH]c2=O)cn1 [Example 112, 3-((1-ethyl-1H-pyrazol-4-yl)methyl)quinolin-2(1H)-one]
7 | O=c1[nH]c2ccncc2cc1Cc1ccc(C2(O)CCC2)cc1 [Example 113, 3-(4-(1-hydroxycyclobutyl)benzyl)-1,6-naphthyridin-2(1H)-one]
1.4 | O=c1[nH]c2ccncc2cc1Cc1ccc2ccccc2c1 [Example 115, 3-(naphthalen-2-ylmethyl)-1,6-naphthyridin-2(1H)-one]
1.7 | N#CC1(c2cccc(Cc3cc4cnccc4[nH]c3=O)c2)CC1 [Example 116, 1-(3-((2-oxo-1,2-dihydro-1,6-naphthyridin-3-yl)methyl)phenyl)cyclopropane-1-carbonitrile]
2.1 | O=c1[nH]c2ccncc2cc1Cc1cccc(OC(F)(F)F)c1 [Example 117, 3-(3-(trifluoromethoxy)benzyl)-1,6-naphthyridin-2(1H)-one]
11.1 | O=C1NCc2ccc(Cc3cc4cnccc4[nH]c3=O)cc21 [Example 118, 3-((3-oxoisoindolin-5-yl)methyl)-1,6-naphthyridin-2(1H)-one]
16 | COC(=O)Nc1ccc(Cc2cc3ccccc3[nH]c2=O)cc1 [Example 119, methyl (4-((2-oxo-1,2-dihydroquinolin-3-yl)methyl)phenyl)carbamate]
3.6 | NS(=O)(=O)c1cccc(Cc2cc3cc(F)ccc3[nH]c2=O)c1 [Example 120, 3-((6-fluoro-2-oxo-1,2-dihydroquinolin-3-yl)methyl)benzenesulfonamide]
0.9 | O=c1[nH]c2ccc(Cc3cc4ccccc4[nH]c3=O)cc2o1 [Example 121, 6-((2-oxo-1,2-dihydroquinolin-3-yl)methyl)benzo[d]oxazol-2(3H)-one]
6.6 | O=C1COc2c(Cc3cc4ccccc4[nH]c3=O)cccc2N1 [Example 122, 8-((2-oxo-1,2-dihydroquinolin-3-yl)methyl)-2H-benzo[b][1,4]oxazin-3(4H)-one]
3.7 | O=C1CCc2cc(Cc3cc4cc(F)ccc4[nH]c3=O)ccc2N1 [Example 123, 6-fluoro-3-((2-oxo-1,2,3,4-tetrahydroquinolin-6-yl)methyl)quinolin-2(1H)-one]
3.5 | CC(=O)NCc1ccc(Cc2cc3ccccc3[nH]c2=O)cc1 [Example 124, N-(4-((2-oxo-1,2-dihydroquinolin-3-yl)methyl)benzyl)acetamide]
6.1 | O=c1[nH]c2ccccc2cc1Cc1ccc(-c2cn[nH]c2)cc1 [Example 125, 3-(4-(1H-pyrazol-4-yl)benzyl)quinolin-2(1H)-one]
2.1 | O=c1[nH]c2ccccc2cc1Cc1ccc(-c2cnccn2)c(F)c1 [Example 127, 3-(3-fluoro-4-(pyrazin-2-yl)benzyl)quinolin-2(1H)-one]
30.4 | CC(=O)NCc1cccc(Cc2cc3ccccc3[nH]c2=O)c1 [Example 128, N-(3-((2-oxo-1,2-dihydroquinolin-3-yl)methyl)benzyl)acetamide]
13.6 | O=c1[nH]c2ccccc2cc1Cc1ccc2c(c1)CCNC2 [Example 129, 3-((1,2,3,4-tetrahydroisoquinolin-6-yl)methyl)quinolin-2(1H)-one]
1.8 | O=c1[nH]c2ccccc2cc1Cc1ccc2occc(=O)c2c1 [Example 130, 3-((4-oxo-4H-chromen-6-yl)methyl)quinolin-2(1H)-one]
3.7 | Cc1cc(Cc2cc3ccccc3[nH]c2=O)cnc1-c1cccc(F)c1 [Example 131, 3-((6-(3-fluorophenyl)-5-methylpyridin-3-yl)methyl)quinolin-2(1H)-one]
18.6 | O=c1[nH]c2ccccc2cc1Cc1ccc2nn[nH]c2c1 [Example 132, 3-((1H-benzo[d][1,2,3]triazol-6-yl)methyl)quinolin-2(1H)-one]
2 | COc1cc(C#N)cc(Cc2cc3ccccc3[nH]c2=O)c1 [Example 133, 3-methoxy-5-((2-oxo-1,2-dihydroquinolin-3-yl)methyl)benzonitrile]
5.1 | Cc1nc(C)c(Cc2cc3ccccc3[nH]c2=O)s1 [Example 134, 3-((2,4-dimethylthiazol-5-yl)methyl)quinolin-2(1H)-one]

EC50 [nM] | SMILES
11.3 | O=c1[nH]c2ccccc2cc1Cc1cnn2c1CCC2 [Example 135, 3-((5,6-dihydro-4H-pyrrolo[1,2-b]pyrazol-3-yl)methyl)quinolin-2(1H)-one]
0.5 | O=c1[nH]c2ccccc2cc1Cc1coc2ccccc12 [Example 136, 3-(benzofuran-3-ylmethyl)quinolin-2(1H)-one]
4.5 | O=c1[nH]c2ccccc2cc1Cc1cnc(N2CCCCC2)s1 [Example 137, 3-((2-(piperidin-1-yl)thiazol-5-yl)methyl)quinolin-2(1H)-one]
36.9 | O=c1[nH]c2ccccc2cc1Cc1cnc(-c2ccc(F)cc2)o1 [Example 138, 3-((2-(4-fluorophenyl)oxazol-5-yl)methyl)quinolin-2(1H)-one]
8.5 | O=c1[nH]c2ccccc2cc1Cc1cnc(N2CCCC2)s1 [Example 139, 3-((2-(pyrrolidin-1-yl)thiazol-5-yl)methyl)quinolin-2(1H)-one]
23.4 | O=c1[nH]c2ccccc2cc1Cc1cc(-c2ccccc2)no1 [Example 140, 3-((3-phenylisoxazol-5-yl)methyl)quinolin-2(1H)-one]
20.2 | NS(=O)(=O)c1cccc(Cc2cc3ccccc3[nH]c2=O)c1 [Example 141, 3-((2-oxo-1,2-dihydroquinolin-3-yl)methyl)benzenesulfonamide]
2.6 | Cn1c(=O)c(Cc2ccc(C(C)(C)O)cc2)cc2ccccc21 [Example 143, 3-(4-(2-hydroxypropan-2-yl)benzyl)-1-methylquinolin-2(1H)-one]
7.2 | Cn1c(=O)c(Cc2cccc(OC(F)(F)F)c2)cc2ccccc21 [Example 144, 1-methyl-3-(3-(trifluoromethoxy)benzyl)quinolin-2(1H)-one]
1.7 | N#CC1CC(Oc2ccc(Cc3cc4ccccc4[nH]c3=O)cc2)C1 (stereo not shown) [Example 146, 3-(4-((2-oxo-1,2-dihydroquinolin-3-yl)methyl)phenoxy)cyclobutane-1-carbonitrile]
2.3 | N#CC1(c2ccc(Cc3cc4ccccc4[nH]c3=O)cc2)COC1 [Example 147, 3-(4-((2-oxo-1,2-dihydroquinolin-3-yl)methyl)phenyl)oxetane-3-carbonitrile]
258 | CC(C)(C#N)n1cc(Cc2cc3ccccc3[nH]c2=O)cn1 [Example 148, 2-methyl-2-(4-((2-oxo-1,2-dihydroquinolin-3-yl)methyl)-1H-pyrazol-1-yl)propanenitrile]
150 | O=C1COc2c(Cc3cc4cccc5c4n(c3=O)CCC5)cccc2N1 [Example 149, 8-((5-oxo-2,3-dihydro-1H,5H-pyrido[3,2,1-ij]quinolin-6-yl)methyl)-2H-benzo[b][1,4]oxazin-3(4H)-one]
16.9 | CC(=O)Nc1ccc(Cc2cc3ccccc3[nH]c2=O)cn1 [Example 150, N-(5-((2-oxo-1,2-dihydroquinolin-3-yl)methyl)pyridin-2-yl)acetamide]
3.3 | CC(=O)NCc1ccc(Cc2cc3ccccc3n(C)c2=O)cc1 [Example 151, N-(4-((1-Methyl-2-oxo-1,2-dihydroquinolin-3-yl)methyl)benzyl)acetamide]
5.3 | O=c1[nH]c2ccccc2cc1Cc1ccc2ncccc2c1 [Example 152, 3-(Quinolin-6-ylmethyl)quinolin-2(1H)-one]
1.2 | Cn1ncc2cc(Cc3cc4ccccc4[nH]c3=O)ccc21 [Example 153, 3-((1-methyl-1H-indazol-5-yl)methyl)quinolin-2(1H)-one]
5.4 | O=C1CCc2cc(Cc3cc4ccccc4[nH]c3=O)ccc2N1 [Example 154, 3-((2-oxo-1,2,3,4-tetrahydroquinolin-6-yl)methyl)quinolin-2(1H)-one]
2 | O=C1COc2ccc(Cc3cc4ccccc4[nH]c3=O)cc2N1 [Example 155, 6-((2-oxo-1,2-dihydroquinolin-3-yl)methyl)-2H-benzo[b][1,4]oxazin-3(4H)-one]
1.4 | O=c1[nH]c2ccccc2cc1Cc1ccc2scnc2c1 [Example 156, 3-(benzo[d]thiazol-5-ylmethyl)quinolin-2(1H)-one]
6.2 | O=c1[nH]c2ccccc2cc1Cc1ccc2nccnc2c1 [Example 157, 3-(quinoxalin-6-ylmethyl)quinolin-2(1H)-one]
60.2 | O=c1[nH]c2ccccc2cc1Cc1cnn2ncccc12 [Example 158, 3-(pyrazolo[1,5-b]pyridazin-3-ylmethyl)quinolin-2(1H)-one]
4.1 | O=C1CC[C@@H](c2ccc(Cc3cc4ccccc4[nH]c3=O)cc2)N1 [Example 159, (S)-3-(4-(5-oxopyrrolidin-2-yl)benzyl)quinolin-2(1H)-one]
6.3 | CC(C)(O)c1ccc(Cc2cc3ccccc3[nH]c2=O)cc1 [Example 160, 3-(4-(2-Hydroxypropan-2-yl)benzyl)quinolin-2(1H)-one]
